According to patent publication US20250115577A1, “BCL-2 Inhibitors” (Eil Therapeutics, Inc., priority 2021, published 2025):

Legend:
[1] = Cell viability assay (CellTiter-Glo), HEK293; format: cell-based; details: human, HEK293 cells, 3 days of incubation
Experimental: (§1) Example D. Cell Viability Assays (Cell lines HEK293, RS4-11, MOLT-4)
(§2) Cells were seeded at a density of 4000 cells per well in the 384-well clear bottom plate (Greiner Cat #781090) to the 45 μL total volume of either DMEM (PanEco, Cat #C420, for HEK293) or RPMI (PanEco, Cat #C330, for other cell lines) with 10% FBS(HyClone Cat #SV30160.03). Prior to adding compounds, the HEK293 cells were allowed to adhere overnight at 37° C. and 5% CO2. The 500× compounds solutions in DMSO(Sigma Cat #D2650) were dispersed into a 384-well compound plate (Diamond Well Plate, Axigen, Cat #P-384-120 SQ-C—S) including only DMSO control. The 1 μL aliquots of the 500× compounds from the compound plate were added to 49 μL of culture medium in the Dilution plate (Diamond Well Plate, Axigen, Cat #P-384-120 SQ-C—S), mixed and then the 5 μL aliquts of the 10× compound solutions were transferred to cells followed by centrifugation at 100 g for 1 min. Final DMSO concentration was 0.2%. After 3 days of incubation the 10 μL aliquots of CellTiter-Glo (Promega, CAT #G7572) were added to the cells, plate was centrifuged at 100 g for 1 min and the luminescence was measured on the CLARIOstar Plus (BMG LABTECH) instrument.
(§3) Instrumentation: CLARIOstar Plus (BMG LABTECH); Biomek FX for liquid handling (Beckman Coulter).

RS4-11 cells = assay: Cell viability assay (CellTiter-Glo), RS4-11; format: cell-based; details: Homo sapiens, RS4-11, 72 h, 3 days of incubation
Experimental: as §1, §2, §3

BCL-2 = BCL-2 (Homo sapiens (Human), UniProt P10415); assay: BCL-2 TR-FRET Assay (primary PPI inhibition); format: binding; details: 60 min incubation, read-out: BCL2 IC50
Chain of BCL-2 (P10415 whole entry): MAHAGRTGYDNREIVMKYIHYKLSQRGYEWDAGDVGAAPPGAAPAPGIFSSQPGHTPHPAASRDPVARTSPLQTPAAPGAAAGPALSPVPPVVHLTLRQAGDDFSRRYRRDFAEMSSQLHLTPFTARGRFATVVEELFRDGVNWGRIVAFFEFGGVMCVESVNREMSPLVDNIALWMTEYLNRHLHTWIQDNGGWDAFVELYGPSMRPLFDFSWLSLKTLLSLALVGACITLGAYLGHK
Experimental: Example A. BCL-2 TR-FRET Assay (BPS Bioscience, #50222)
(§4) The following assay concentrations and times were used: 3 ng of BCL-2, 5 μL of 1:100 anti-His Tb-labeled donor, 5 μL of 1:100 Dye-labeled acceptor, 5 µL of 1:40 BCL-2 Peptide Ligand, and 2 μL of 200× test compound, with 60 min incubation time (final concentration of DMSO 0.5%). The results of the assay were read using a plate reader with the following parameters: TR FRET, 340ex/620 and 665em; 60 usec Delay; and 500 usec integration.
as §3

[2] = system: caspase-3 and -7 activities in RS4-11 cells; assay: Caspase-3/7 activation (Caspase-Glo 3/7) in RS4-11 cells; format: cell-based; details: Homo sapiens, 3.5 h, read-out: Cas-3/7 EC50
Experimental: Example E. Caspase-3/7 Activation
Assay Principle: The Caspase-Glo 3/7 Assay is homogeneous, luminescent assay that measures caspase-3 and -7 activities. The assay provides a luminogenic caspase-3/7 substrate, which contains the tetrapeptide sequence DEVD, in a reagent optimized for caspase activity.
Assay Procedure: Incubate RS4-11 (ATCC, CRL-1873) cells in the 384-well white plate (Corning, #3570) with varying concentrations of test compounds for 3.5 h in a humidified incubator at 37° C. and 5% CO2 […]. Add 15 μL of the Caspase-Glo (Promega, #8212) reagent to each well and to incubate the plate for 30 min at rt. Read on the CLARIOstar Plus (BMG LABTECH) instrument.
as §3

MOLT-4 cells = assay: Cell viability assay (CellTiter-Glo), MOLT-4; format: cell-based; details: Homo sapiens, 72 h, 3 days of incubation
Experimental: as §1, §2, §3

BCL-xL = BCL-xL (Homo sapiens (Human), UniProt Q07817); assay: BCL-xL TR-FRET Assay (primary PPI inhibition); format: binding; details: 60 min incubation, read-out: BCLxL IC50
Chain of BCL-xL (Q07817 whole entry): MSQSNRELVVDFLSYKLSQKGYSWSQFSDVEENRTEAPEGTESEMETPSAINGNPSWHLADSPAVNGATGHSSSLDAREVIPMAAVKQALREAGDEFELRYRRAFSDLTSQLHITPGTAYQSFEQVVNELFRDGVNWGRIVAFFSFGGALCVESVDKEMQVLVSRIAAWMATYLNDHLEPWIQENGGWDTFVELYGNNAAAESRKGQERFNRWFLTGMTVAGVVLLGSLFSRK
Experimental: Example B. BCL-xL TR-FRET Assay (BPS Bioscience, #50223)
as §4, with “used: 10.5” for “used: 3”, “of BCL-xL,” for “of BCL-2,”, “of 1:120” for “of 1:100”, “5 μL” for “5 µL”, “of 1:96 BCL-xL” for “of 1:40 BCL-2”, “Ligand,” for “Ligand, and”
as §3

SMILES	CC50 at 3 days [1]	CC50 (RS4-11 cells)	IC50 (BCL-2)	EC50 [2]	CC50 (MOLT-4 cells)	IC50 (BCL-xL)
COc1cccc(CN(C(=O)c2cc(-c3cc(C(N)=O)ccc3C(=O)N3Cc4ccccc4C[C@H]3CN3CCOCC3)n(C)c2C)c2ccc(O)cc2)c1C [Compound 64, 5-[5-carbamoyl-2-[(3S)-3-(morpholinomethyl)-3,4-dihydro-1H-isoquinoline-2-carbonyl]phenyl]-N-(4-hydroxyphenyl)-N-[(3-methoxy-2-methyl-phenyl)methyl]-1,2-dimethyl-pyrrole-3-carboxamide]	> 25000 nM	≤ 100 nM	≤ 5 nM	> 500 nM	> 10000 nM	> 5000 nM
COc1cc(-c2cc(C(=O)N(Cc3ccccc3OC)c3ccc(Cl)cc3)c(C)n2C)c(C(=O)N2Cc3ccccc3C[C@H]2CN2CCOCC2)cc1C#N [Compound 56, N-(4-chlorophenyl)-5-[4-cyano-5-methoxy-2-[(3S)-3-(morpholinomethyl)-3,4-dihydro-1H-isoquinoline-2-carbonyl]phenyl]-N-[(2-methoxyphenyl)methyl]-1,2-dimethyl-pyrrole-3-carboxamide]	≤ 10000 nM	> 200 nM	> 50 nM	> 500 nM	≤ 5000 nM	2000 to 5000 nM
COc1cccc(CN(C(=O)c2cc(-c3cc(Cl)c(OC(F)F)cc3C(=O)N3Cc4ccccc4C[C@H]3CN3CCOCC3)n(C)c2C)c2ccc(Cl)cc2)c1C [Compound 32, 5-[5-chloro-4-(difluoromethoxy)-2-[(3S)-3-(morpholinomethyl)-3,4-dihydro-1H-isoquinoline-2-carbonyl]phenyl]-N-(4-chlorophenyl)-N-[(3-methoxy-2-methyl-phenyl)methyl]-1,2-dimethyl-pyrrole-3-carboxamide]	> 25000 nM	> 200 nM	> 50 nM	> 500 nM	≤ 5000 nM	2000 to 5000 nM
COc1ccccc1CN(C(=O)c1cc(-c2cc(C#N)ccc2C(=O)N2Cc3ccccc3C[C@H]2CN2CCOCC2)n(C)c1C)c1ccc(O)cc1 [Compound 55, 5-[5-cyano-2-[(3S)-3-(morpholinomethyl)-3,4-dihydro-1H-isoquinoline-2-carbonyl]phenyl]-N-(4-hydroxyphenyl)-N-[(2-methoxyphenyl)methyl]-1,2-dimethyl-pyrrole-3-carboxamide]	> 25000 nM	100 to 200 nM	5 to 10 nM	200 to 500 nM	≤ 5000 nM	≤ 2000 nM
COc1cccc(CN(C(=O)c2cc(-c3cc(C(F)F)c(Cl)cc3C(=O)N3Cc4ccccc4C[C@H]3CN3CCOCC3)n(C)c2C)c2ccc(C#N)cc2)c1C [Compound 24, 5-[4-chloro-5-(difluoromethyl)-2-[(3S)-3-(morpholinomethyl)-3,4-dihydro-1H-isoquinoline-2-carbonyl]phenyl]-N-(4-cyanophenyl)-N-[(3-methoxy-2-methyl-phenyl)methyl]-1,2-dimethyl-pyrrole-3-carboxamide]	> 25000 nM	> 200 nM	> 50 nM	> 500 nM	> 10000 nM	2000 to 5000 nM
Cc1c(C(=O)N(Cc2ccccc2C#N)c2ccc(O)cc2)cc(-c2cc([N+](=O)[O-])ccc2C(=O)N2Cc3ccccc3C[C@H]2CN2CCOCC2)n1C [Compound 62, N-[(2-cyanophenyl)methyl]-N-(4-hydroxyphenyl)-1,2-dimethyl-5-[2-[(3S)-3-(morpholinomethyl)-3,4-dihydro-1H-isoquinoline-2-carbonyl]-5-nitro-phenyl]pyrrole-3-carboxamide]	> 25000 nM	≤ 100 nM	≤ 5 nM	≤ 200 nM	≤ 5000 nM	> 5000 nM
COc1cccc(CN(C(=O)c2cc(-c3cc(F)c(OC(F)F)cc3C(=O)N3Cc4ccccc4C[C@H]3CN3CCOCC3)n(C)c2C)c2ccc(Cl)cc2)c1C [Compound 26, N-(4-chlorophenyl)-5-[4-(difluoromethoxy)-5-fluoro-2-[(3S)-3-(morpholinomethyl)-3,4-dihydro-1H-isoquinoline-2-carbonyl]phenyl]-N-[(3-methoxy-2-methyl-phenyl)methyl]-1,2-dimethyl-pyrrole-3-carboxamide]	> 25000 nM	> 200 nM	> 50 nM	> 500 nM	≤ 5000 nM	2000 to 5000 nM
COc1cccc(CN(C(=O)c2cc(-c3cc([N+](=O)[O-])ccc3C(=O)N3Cc4ccccc4C[C@H]3CN3CCOCC3)n(C)c2C)c2ccc(O)cc2)c1C [Compound 61, N-(4-hydroxyphenyl)-N-[(3-methoxy-2-methyl-phenyl)methyl]-1,2-dimethyl-5-[2-[(3S)-3-(morpholinomethyl)-3,4-dihydro-1H-isoquinoline-2-carbonyl]-5-nitro-phenyl]pyrrole-3-carboxamide]	> 25000 nM	≤ 100 nM	≤ 5 nM	200 to 500 nM	≤ 5000 nM	> 5000 nM
COc1ccccc1CN(C(=O)c1cc(-c2cc(Cl)ccc2C(=O)N2Cc3ccccc3C[C@H]2CN2CCOCC2)n(C)c1C)c1ccc2[nH]ncc2c1 [Compound 69, 5-[5-chloro-2-[(3S)-3-(morpholinomethyl)-3,4-dihydro-1H-isoquinoline-2-carbonyl]phenyl]-N-(1H-indazol-5-yl)-N-[(2-methoxyphenyl)methyl]-1,2-dimethyl-pyrrole-3-carboxamide]	> 25000 nM	> 200 nM	10 to 50 nM	> 500 nM	> 10000 nM	> 5000 nM
COc1cccc(CN(C(=O)c2cc(-c3cc(C(F)F)c(Cl)cc3C(=O)N3Cc4ccccc4C[C@H]3CN3CCOCC3)n(C)c2C)c2ccc(Cl)cc2)c1C [Compound 39, 5-[4-chloro-5-(difluoromethyl)-2-[(3S)-3-(morpholinomethyl)-3,4-dihydro-1H-isoquinoline-2-carbonyl]phenyl]-N-(4-chlorophenyl)-N-[(3-methoxy-2-methyl-phenyl)methyl]-1,2-dimethyl-pyrrole-3-carboxamide]	> 25000 nM	> 200 nM	> 50 nM	> 500 nM	≤ 5000 nM	2000 to 5000 nM
Cc1c(C(=O)N(Cc2ccccc2C#N)c2ccc(O)cc2)cc(-c2cc(F)c(F)cc2C(=O)N2Cc3ccccc3C[C@H]2CN2CCOCC2)n1C [Compound 53, N-[(2-cyanophenyl)methyl]-5-[4,5-difluoro-2-[(3S)-3-(morpholinomethyl)-3,4-dihydro-1H-isoquinoline-2-carbonyl]phenyl]-N-(4-hydroxyphenyl)-1,2-dimethyl-pyrrole-3-carboxamide]	> 25000 nM	100 to 200 nM	10 to 50 nM	200 to 500 nM	5000 to 10000 nM	2000 to 5000 nM
